The values below are quoted from earlier work in US20220387435A1, “USE OF MULTI-TARGET PROTEIN KINASE INHIBITOR” (CSPC Zhongqi Pharmaceutical Technology (Shijiazhuang) Co., …, priority 2019, published 2022).

“Also recorded” adds a separate entry of the source. A value given as a limit tells only on which side of the number the result lay.

For series [1], the system named is AML patients. The following applies: cited from earlier work; for CR rates in monotherapy for R/R AML: Sorafenib 400 mg BID, Midostaurin 50 mg BID, Quizartinib 30-60 mg QD, Gilteritinib 120 mg QD.
Series [2] deals with AML patients. Conditions: cited from earlier work; for Main toxicity: similar products, prior art.
A further series concerns FLT3-TKD mutation. Conditions: similar products, prior art; cited from earlier work.
Setting [3] is: phase 3 clinical trial of Quizatinib.
The mark [4] stands for this setting: phase II trial of oral Quizartinib, relapsed/refractory AML.
Where [5] appears, read: phase II trial of oral Quizartinib.
Where [6] appears, read: 120 mg daily, N = 246, ADMIRAL trial.
Where [7] appears, read: phase 3 clinical trial of Gilteritinib.

As to `CC(C)(C)c1cc(NC(=O)Nc2ccc(-c3cn4c(n3)sc3cc(OCCN5CCOCC5)ccc34)cc2)no1` [Quizartinib], the CR in the series on AML patients [1] (Quizatinib Japan phase 2 53 mg 26 cases, prior lines not limited) was 0 cases. The “CR rates in monotherapy for R/R AML” value with AML patients [1] is reported as 24-47%. For the same molecule, in the series on AML patients [2] (setting [3]), the “serious hematological adverse reaction: anemia” value was 25.9%, the “serious hematological adverse reaction: cytopenia” value is recorded as 2.5%, the “serious hematological adverse reaction: febrile neutropenia” value is given as 15.8% and the “serious hematological adverse reaction: leukopenia” value is 18.0%. Besides, in the series with AML patients [2] (setting [3]), the “serious hematological adverse reaction: lymphopenia” value is given as 4.0%, the “serious hematological adverse reaction: neutropenia” value is 25.9% and the “serious hematological adverse reaction: thrombocytopenia” value was 34.2%. In addition, in the series with AML patients [2] (setting [4]), the “adverse reaction: anemia” value is recorded as 29%, the “adverse reaction: diarrhea” value is 20%, the “adverse reaction: fatigue” value is reported as 20% and the “adverse reaction: febrile neutropenia” value is reported as 25%. Also, in the series with AML patients [2] (setting [4]), the “adverse reaction: nausea” value is given as 38% and the “adverse reaction: vomiting” value is 26%. Further, in the series with AML patients [2] (setting [5]), the dose-limiting toxicity response result was “QT prolongation of Grade 3” and the “patients discontinuing the treatment due to adverse events” value is given as 10%. Besides, the Main toxicity result with AML patients [2] was “QTinterval; also recorded: myelosuppression”.
In the case of `CNC(=O)c1cc(Oc2ccc(NC(=O)Nc3ccc(Cl)c(C(F)(F)F)c3)cc2)ccn1` [Sorafenib], the FLT3-TKD mutation activity entry in the series with FLT3-TKD mutation is recorded as “No”. Moreover, in the series with AML patients [1], the “CR rates in monotherapy for R/R AML” value is under 10%. In addition, the Main toxicity entry with AML patients [2] is “Rash, bleeding,; also recorded: myelosuppression”.
On to `CO[C@@H]1[C@H](N(C)C(=O)c2ccccc2)C[C@H]2O[C@]1(C)n1c3ccccc3c3c4c(c5c6ccccc6n2c5c31)C(=O)NC4` [Midostaurin], for which, in the series on AML patients [2], the Main toxicity entry was “Gastrointestinal; also recorded: myelosuppression”.
As to `CCc1nc(C(N)=O)c(Nc2ccc(N3CCC(N4CCN(C)CC4)CC3)c(OC)c2)nc1NC1CCOCC1` [Gilteritinib], in the series on AML patients [2] (setting [6]), the “Most common ADRs of grade ≥ 3: Anemia” value is 100 (40.7%), the “Most common ADRs of grade ≥ 3: Febrile neutropenia” value is given as 113 (45.9%) and the “Most common ADRs of grade ≥ 3: Thrombocytopenia” value is 56 (22.8%). Moreover, in the series with AML patients [2] (120 mg daily, N = 292), the “Cardiotoxicity ADR: Cardiac failure” value is given as 4%, the “Cardiotoxicity ADR: Pericardial effusion” value is recorded as 3%, the “Cardiotoxicity ADR: Pericarditis” value is given as 2% and the “Cardiotoxicity ADR: QT interval prolongation” value is listed as 8.4%. Moreover, in the series on AML patients [2] (setting [7]), the “incidence of ALT elevation of all grades” value is given as 26.3%, the “incidence of ALT elevation of grade ≥3” value was 12.9%, the “incidence of AST elevation of all grades” value is 80.6% and the “incidence of QT interval prolongation of all grades” value is on record as 8.8%. Further, the “incidence of QT interval prolongation of grade ≥3” value in the series with AML patients [2] (setting [7]) is given as 2.5%. Further, the Main toxicity entry with AML patients [2] is listed as “Transaminase; also recorded: diarrhea”.
